Test results from patent US3988466A, “Prevention of gastric lesions” (priority 1973, dated 1976).

Legend:
[1] = pH of amino acids in 1% carboxymethylcellulose solution; format: physicochemical; settings: 150 mg/ml in 1% carboxymethylcellulose solution
Protocol: The pH values of the amino acids are also determined. The amino acids are separately dissolved or suspended in 1% carboxymethylcellulose solution at a concentration of 150 mg/ml and the pH is measured on an Hitachi pH meter (product of Hitachi Ltd., Japan).

[2] = test system: yeast-induced fever in rats; assay: Effect of L-glutamine on antipyretic activity of aspirin in rats (Experiment B); format: in vivo, male Wistar strain rats; settings: for Rectal temperature: L-glutamine 1000 mg/kg oral
Protocol: In this Experiment, male Wistar strain rats weighing about 90-100 g are treated with 2.5 ml/rat of a suspension of yeast (Brewers Yeast, product of Nutritional Biochem. Co., U.S.A.) in physiological saline (concentration: 250 mg/ml), by subcutaneous injection in the back, according to the method of Gleen et al [Gleen, E. M. et al: J. Pharma. Exp. Therp., 155, 157 (1967)]. The animals are then fasted. The animals showing an increased rectal temperature of 38° C or more after 17 hours are selected for use in experiment. […] As a control, one group is treated with 105 ml of 1% carboxymethylcellulose solution alone. After the treatment, the rectal temperature is measured at the time indicated.

[3] = test system: carageenin-induced paw edema in rats; assay: Effect of L-glutamine on anti-inflammatory activity of aspirin in rats (Experiment D); format: in vivo, male Donryu strain rats
Protocol: As a control, a sixth group is treated with 1% carboxymethylcellulose solution. After one hour, the animals are treated with a phlogistic agent of 0.1 ml of 1% carrageenin solution by subcutaneous injection in a hind paw, according to the method of Yamasaki et al. [Yamasaki, H. et al: Folia Pharm. Jap., 63, 302 (1967)]. Swelling of the paw is measured 5 hours after the administration of the phlogistic agent.

[4] = L-glutamine 1000 mg/kg oral, 5 hours after phlogistic agent

NC(=O)CC[C@H](N)C(=O)O [L-glutamine]
Amino acid pH [1]: 6.65 | Rectal temperature ([2]; 0 hour): 38.6±0.2 °C | Rectal temperature ([2]; 1 hour): 38.5±0.2 °C | Rectal temperature ([2]; 2 hours): 38.2±0.3 °C | Rectal temperature ([2]; 4 hours): 38.1±0.4 °C | Rectal temperature ([2]; 6 hours): 38.2±0.3 °C | influence on antipyretic activity of aspirin ([2]; presence of L-glutamine): not substantially influenced | Suppression ratio [3, 4]: 5.4% | Swelling ratio [3, 4]: 117.2±4.7% | influence on anti-inflammatory activity of aspirin ([3]; presence of L-glutamine): not substantially influenced
